# Marks after values point to notes of the source that are not given here.
# Experiments:
# [1] = Aqueous solubility, 24 h equilibration, HPLC of filtrate; format: physicochemical
# Description: (§1) HPLC was carried out in a TSP instrument with a P4000 pump, an AS3000 autosampler, an SCM1000 degasser, a UV3000 detector, and PC1000 Version 4.1 software.
# The pH of the corresponding saturated solution was 6.1. […] This may be due to chemical instability of dexlansoprazole in the solution environment.
# [2] = Kinetic solubility experiment in water; format: physicochemical
# Description: as §1
# A further experiment to evaluate the kinetic solubility was carried out. The maximum was reached already after 15 minutes and that the concentration in the solution remained constant for the duration of the experiment.
# [3] = Dynamic vapor sorption (DVS), hygroscopicity; format: physicochemical; conditions: for DVS weight gain at 85% relative humidity: 85% r.h.
# Description: DVS was carried out in a Surface Measurement System DVS-1. The sample was placed on a platinum holder on top of a microbalance and allowed to equilibrate for 2 hours at 50% r.h. before starting the pre-defined humidity program: 50→95% r.h. (5%/h); 5 hours at 95% r.h., 95→0% r.h. (5%/h); 5 h at 0% r.h., then 0→50% r.h. (5%/h); and 2 hours at 50% r.h.
# The hygroscopicity was classified based on the mass gain at 85% r.h. relative to the initial mass as follows: deliquescent (sufficient water adsorbed to form a liquid), very hygroscopic (mass increase of ≧15%), hygroscopic (mass increase <15% but ≧2%), slightly hygroscopic (mass increase <2% but ≧0.2%), or non-hygroscopic (mass increase <0.2%).
# In order to examine the behavior of SP134-SBT-P26 in the presence of variable water vapor pressure, the sample was analyzed by isothermal DVS at 25° C. […] The sample was conditioned at 50% r.h. before starting a pre-defined humidity program with a scanning rate of 5% r.h. change per hour. Below 50% r.h. a small but continuous mass loss of the sample is observed (˜0.07%). This mass loss is in good accordance to the results of the TG-FTIR-measurement and Karl Fischer water content determination.
# In order to examine the behavior of SP134-SBT-P27 in the presence of variable water vapor pressure, the sample was analyzed by isothermal DVS at 25° C. The sample was conditioned at 50% r.h. before starting a pre-defined humidity program with a scanning rate of 5% r.h. change per hour. Below 50% r.h. a small but continuous mass loss of the sample is observed (˜0.06%). This mass loss is in good accordance to the results of the TG-FTIR-measurement and Karl Fischer water content determination.
# [4] = Stability of the co-crystal as a solid and in water or solution; conditions: for Stability in water for 24 hours: 25° C., disintegration into its components
# Description: Solubility was determined by adding approximately 0.5 mL of doubly distilled water to 19.1 mg of the substance to be measured. The resulting suspension was equilibrated in a temperature-controlled Eppendorf Thermomixer Comfort Shaker for 24 hours at 25° C. at a shaking rate of 500 rpm. The solid phase was recovered by filter centrifugation (0.1-μm PVDF membrane) and examined by FT-Raman spectroscopy. Concentrations in the filtrate (i.e., saturated solutions) or diluted solutions thereof were determined using the HPLC method disclosed herein. The pH of the saturated solution was determined with a Metrohm 713 pH meter.
# [5] = Approximate solubility by manual dilution combined with visual observation; conditions: room temperature
# Description: The approximate solubilities of the sorbitol co-crystal former were estimated at 60° C. and of the 1:1 dexlansoprazole-sorbitol co-crystal at 40° C. and 10° C. […] The solubility values presented are intended to be regarded as rough estimates and are to be used solely for the design of crystallization experiments. All solvent mixtures are listed as ratios by volume (v/v).
# The solubility values presented are intended to be regarded as rough estimates and are to be used solely for the design of crystallization experiments. All solvent mixtures are listed as ratios by volume (v/v).
smiles,measurement,setting,value
Cc1c(OCC(F)(F)F)ccnc1C[S+]([O-])c1nc2ccccc2[nH]1.Cc1c(OCC(F)(F)F)ccnc1C[S+]([O-])c1nc2ccccc2[nH]1.OCC(O)C(O)C(O)C(O)CO.OCC(O)C(O)C(O)C(O)CO.OCC(O)C(O)C(O)C(O)CO (centres unmarked) [SP134-SBT-P7],Solubility in water,"[1]; 24 hours equilibration at 22° C., solid residue was free drug, so value corresponds to free drug",180 µg/mL
same,pH of the saturated solution,"[1]; water, 24 hours equilibration",6.1
same,"Solubility as a function of time, constant value reached",[2]; after 15 minutes,250 µg/mL
same,Kinetic solubility in water,[2]; 15 min,0.25 mg dexlansoprazole per ml
same,Kinetic solubility in water,[2]; 30 min,0.26 mg dexlansoprazole per ml
same,Kinetic solubility in water,[2]; 1 hour,0.26 mg dexlansoprazole per ml
same,Kinetic solubility in water,[2]; 2 hour,0.24 mg dexlansoprazole per ml
same,Kinetic solubility in water,[2]; 4 hrs.,0.27 mg dexlansoprazole per ml
same,Kinetic solubility in water,[2]; 8 hrs.,0.27 mg dexlansoprazole per ml
same,Reversibility of DVS weight gain and loss,[3],reversible
same,DVS weight loss at 0% r.h. relative to the starting weight,[3]; 0% r.h.,< 1 wt.-%
same,DVS weight increase at 50% r.h. on desorption relative to the starting weight,[3]; 50% r.h. after lowering from 95% r.h.,~1 wt. %
same,DVS step in weight gain,[3]; 70-75% r.h.,~4 wt.-%
same,DVS weight gain at 85% relative humidity,[3],"(~70-75% r.h.), gain of ~7 wt.-% at 85% r.h.;"
same,DVS weight gain at 85% relative humidity,[3]; listed as sorbitol co-crystal,~7 wt.-%
same,FT-Raman post-DVS compared with pre-DVS/reference (form change),[3]; after DVS cycle,no significant changes
same,Hygroscopicity class,"[3]; mass gain at 85% r.h. relative to the initial mass, listed as sorbitol co-crystal",hygroscopic (mass increase <15% but ≧2%)
same,DVS weight gain at 95% relative humidity,[3]; r.h. raised from 50% to 95%,20 wt.-%
same,Stability as a solid,[4]; solid,stable
same,Stability in water for 24 hours,[4],"solid form not stable in H2O for 24 h, disintegrates"
same,Stability in water for 24 hours,[4]; listed as dexlansoprazole/sorbitol co-crystal,not stable
same,solubility,[5]; 1:1 EtOAc/DMSO,>200000 µg/mL
same,Solubility (mg/mL),[5]; 1:1 EtOH/H2O,50-100^a mg/mL
same,solubility,[5]; 2:1 EtOH/H2O + 5 vol.-% NH3 solution,60000 to 100000 µg/mL
same,solubility,[5]; 2:1 MeOH/H2O + 5 vol.-% NH3 solution,60000 to 100000 µg/mL
same,Solubility (mg/mL),[5]; 2:1 MeOH/borax buffer (pH = 9.0),45-65^a mg/mL
same,solubility,[5]; 9:1 EtOAc/DMSO,~10000 µg/mL
same,solubility,[5]; EtOAc,<1000 µg/mL
same,Solubility (mg/mL),[5]; H2O,0.25^a mg/mL

# From patent US8318943B1, “Sorbitol/dexlansoprazole co-crystals and method for making same” (Takeda Pharmaceuticals U.S.A., Inc., priority 2010, dated 2012)
